Data taken from publication PMC8126888 (RSC Medicinal Chemistry, 2020).
Read-outs that look alike come from different tables or passages of the source.

What was measured:
in vitro [1] = conditions: human, HepG2 cells
in vitro [2] = conditions: PAMPA
in vitro [3] = conditions: human, HFF-1 cells
in vitro [4] = conditions: mouse, microsomes, pH 7.4, MLM CLint, mouse liver microsomes
[5] = test system: Trypanosoma cruzi, Tulahuen CL2, beta-galactosidase strain; assay: microbe, parasite or virus in culture; conditions: MRC5, read-out: T. cruzi Tulahuen C4 (LacZ) IC50
in vitro [6] = conditions: human
[7] = test system: Leishmania infantum MHOM/MA(BE)/67/ITMAP263 intracellular amastigotes; assay: microbe, parasite or virus in culture; conditions: Macrophage, in Mus musculus
physchem = conditions: HPLC, Ascentis Express RP Amide column, pH 7.4, eLogD
[8] = test system: primary peritoneal mouse macrophages (PMM); assay: cells; conditions: Macrophage, read-out: PMM IC50
in vitro [9] = conditions: human, microsomes, pH 7.4, HLM CLint, human liver microsomes
[10] = test system: primary peritoneal mouse macrophages (PMM); conditions: PMM IC50 / L. infantum IC50
in vitro [11] = conditions: Swiss, mouse
in vitro [12] = conditions: PAMPA; remark: listed apart in the source
[13] = read-out: L. Inf. pIC50, from L. infantum intracellular amastigote IC50 (converted)
[14] = read-out: L. infantum MHOM/MA(BE)/67/ITMAP263 intracellular amastigotes IC50, intracellular amastigotes
[15] = read-out: L. infantum MHOM/MA(BE)/67/ITMAP263 intracellular amastigotes IC50

SMILES	CC50 (in vitro [1]) [µM]	Papp (in vitro [2]) [×10⁻⁶ cm/s]	CC50 (in vitro [3]) [µM]	microsomal CLint at 0.5 μM (in vitro [4]) [µL/min/mg]	IC50 [5] [µM]	CC50 at 3 days (in vitro [6]) [µM]	IC50 [7, 13] [µM]	IC50 [7, 14] [µM]	chromatographic logD (physchem; experimental)	IC50 [8] [µM]	microsomal CLint at 0.5 μM (in vitro [9]) [µL/min/mg]	SI (vs PMM) [10]	IC50 [7, 15] [µM]	chromatographic logD (physchem)	IC50 (in vitro [11]) [µM]	Papp (in vitro [12]) [×10⁻⁶ cm/s]
COc1ccc(C#N)cc1S(=O)(=O)N(Cc1ccc(F)cc1)Cc1oc(C)nc1C [DNDI0003370421]	> 64	14.8	1.91	721	26.1	49.1	7.94	7.89	3.7	> 64	392					
COc1ccc(C#N)cc1S(=O)(=O)N(Cc1ccc(F)cc1)Cc1ccc(C#N)cc1 [DNDI0003371171]	> 64		> 64		30.4	> 64	33.1	33.2		> 64						
COc1ccc(OC)c(S(=O)(=O)N(Cc2ccc(F)cc2)c2ccc(F)cc2)c1 [DNDI0003371170]	23.3	1.83	30.7	703	15.1	> 64	11.2	11.3		> 64	417					
COc1ccc(S(C)(=O)=O)cc1S(=O)(=O)N(Cc1ccc(F)cc1)Cc1ccc(F)cc1 [DNDI0003371164]	41.7	2.57	24.3		22	> 64	1.29	1.28		> 64	296					
O=S(=O)(c1cccnc1OC(F)F)N(Cc1ccc(F)cc1)Cc1ccc(F)cc1 [DNDI0003371167]	> 64	0.98	> 64	3070	31.2	> 64	9.33	9.4	4.8	> 64	751					
Nc1ncccc1S(=O)(=O)N(Cc1ccc(F)cc1)Cc1ccc(F)cc1 [DNDI0003371163]	> 64	2.18	52.2	447	42	> 64	> 64	> 64	4.2	> 64	164					
CNc1ncccc1S(=O)(=O)N(Cc1ccc(F)cc1)Cc1ccc(F)cc1 [DNDI0003371162]	16.9	1.61	> 64	984	14.5	> 64	3.55	3.54	4.5	> 64	401					
CCN(Cc1ccccc1)S(=O)(=O)c1cc(Cl)ccc1OC [DNDI0003364251]				1260	9.1	53.2	5.5				304	12	5.52	4.3	> 64	3.74
CCN(Cc1ccccc1)S(=O)(=O)c1ccccc1OC [DNDI0003363820]				1370	30.1	36.3	11				406	6	11	3.6	> 64	18.5
COc1ccc(OC)c(S(=O)(=O)N2CCC(c3ccccc3)CC2)c1 [DNDI0003370422]	63.9	6.45	4.56	664	16.9	> 64	> 64	> 64	4.2	> 64	1610					
[2H]C([2H])([2H])Oc1ncccc1S(=O)(=O)N(Cc1ccc(F)cc1)Cc1ccc(F)cc1 [DNDI0003371166]	18.9	4.95	41.8	123	20.8	> 64	32.4	32.1	3.5	> 64	14					
Cn1cccc(S(=O)(=O)N(Cc2ccc(F)cc2)Cc2ccc(F)cc2)c1=O [DNDI0003371168]	> 64	18.3	62.5	629	24.5	> 64	20.4	20.5	3.8	> 64	222					
COc1ccc(OC)c(S(=O)(=O)N(Cc2ccc(F)cc2)Cc2oc(C)nc2C)c1 [DNDI0003370420]	> 64	46.4	1.24	2280	24.9	> 64	2.34	2.34	3.8	> 64	376					
CCN(Cc1ccccc1)S(=O)(=O)c1ccccc1C#N [DNDI0002574585]				1060	29.3	> 64	25.7				306	2	25.6	3.5	> 64	16.6
COc1ccc(Cl)cc1S(=O)(=O)N(Cc1ccccc1)OC [DNDI0003364476]				1890	7.86	> 64	24.5				265	3	24.7	4.3	> 64	5.91
COc1ncccc1S(=O)(=O)N(Cc1ccc(F)cc1)Cc1ccc(F)cc1 [DNDI0003371169]	> 64	2.56	> 64	1170	44.2	> 64	12.9	13	4.4	> 64	334					
CCN(Cc1ccccc1)S(=O)(=O)c1ccc(NC(C)=O)cc1 [DNDI0003364473]				398	33.1	> 64	> 64				205	1	> 64	3.5	> 64	13.6
COc1ccc(OC)c(S(=O)(=O)N(Cc2ccc(F)cc2)Cc2ncccn2)c1 [DNDI0003370419]	> 64	25.1	19.1	844	38.8	> 64	13.8	13.8	3.4	> 64	115					
CCC(Cc1ccccc1)[S+]([O-])c1nc(C)cc(C)c1C#N (stereo not drawn) [DNDI0003297458]				1560	> 64	> 64	47.9				1230	1	47.6	3.2	> 64	13.4
O=S(=O)(NCc1ccccc1)c1ccccc1 [DNDI0003363562]				161	> 64	> 64	> 64				50	1	> 64	2.9	> 64	21.6
O=c1[nH]cccc1S(=O)(=O)N(Cc1ccc(F)cc1)Cc1ccc(F)cc1 [DNDI0003371165]	> 64	23.6	23.2	218	42.3	> 64	> 64	> 64	3.8	> 64	44					
CCC(Cc1ccccc1)Sc1nc(C)cc(C)c1C#N (stereo not drawn) [DNDI0003297457]				1900	6.9	> 64	2.63				2010	15	2.64	5.4	40.3	0.19
CCN(Cc1ccccc1)S(=O)(=O)c1ccccc1OC(F)(F)F [DNDI0003364252]				2340	22.4	> 64	8.51				1180	8	8.47	4.5	> 64	1.18
